This is an account of results in PubChem BioAssay AID1508610 (The Scripps Research Institute Molecular Screening Center, 2020).

Each structure is given as a SMILES string. Calls of active or inactive are those of the source. How the calls were made is not given here.

The target in the test is G-protein coupled receptor 151 (Homo sapiens) (UniProt Q8TDV0). The test can be described thus: GPR151 activator potency, dose response, cell-based (AID 1508610). The settings on record: cell-based GPR151 activation reporter.
Chain of G-protein coupled receptor 151 (Homo sapiens) (Q8TDV0 whole entry, looked up): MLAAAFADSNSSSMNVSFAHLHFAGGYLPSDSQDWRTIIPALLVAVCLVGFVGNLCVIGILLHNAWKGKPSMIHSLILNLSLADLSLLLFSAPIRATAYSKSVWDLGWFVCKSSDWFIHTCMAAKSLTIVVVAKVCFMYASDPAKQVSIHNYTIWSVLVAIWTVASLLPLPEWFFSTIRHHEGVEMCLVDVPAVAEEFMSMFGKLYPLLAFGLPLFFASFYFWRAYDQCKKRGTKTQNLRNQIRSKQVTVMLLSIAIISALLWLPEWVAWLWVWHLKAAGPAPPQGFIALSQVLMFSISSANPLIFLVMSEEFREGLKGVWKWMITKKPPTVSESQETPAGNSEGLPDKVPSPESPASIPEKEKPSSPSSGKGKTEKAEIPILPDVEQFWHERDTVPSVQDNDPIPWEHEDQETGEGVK
In general, EC50 refers to the midpoint of the concentration-response curve. As to `COc1ccc(N(CC(=O)Nc2ccccc2-c2ccccc2)S(C)(=O)=O)cc1`, the EC50 was > 28 µM (inactive).
Under `CCCCCCOc1ccc(C(=O)O)cc1OC` stands > 31.1 µM (inactive); under `O=C1NC(c2ccc(Cl)cc2Cl)Oc2ccccc21` (stereo not drawn), > 28 µM (inactive); under `CCOCCOC(=O)C1=C(C)Nc2ccc(C)cc2S1`, > 28 µM (inactive).
Under `Cc1cccc(N2CCN(C(=O)c3ccc(S(=O)(=O)c4ccc(F)cc4)c([N+](=O)[O-])c3)C(C)C2)c1` (stereo not drawn) stands > 23.3 µM (inactive); under `c1ccc(-c2ccc(-c3nc(-c4ccccn4)no3)cc2)cc1`, > 24.8 µM (inactive); under `CC(C)N(CCNc1nc(N2CCC(N3CCOCC3)CC2)nc2c1ncn2C1CCCCC1)C(C)C`, > 29.5 µM (inactive).
Next, `COc1cccc2oc(-c3ccccc3)cc(=O)c12`: > 28 µM (inactive); `COc1ccc(CCNc2cc(C)nc(Nc3ccc(-n4ccnc4)cc3)n2)cc1`: 1.17 µM; `CC(=O)c1ccc(NC(=O)COC(=O)c2ccc3c(c2)nc(C)n3-c2ccccc2)cc1`: > 28.8 µM (inactive).
Take `COc1cc(Nc2cc(-c3ccc(C(N)=O)cc3)nc(N)n2)cc(OC)c1OC`: the EC50 is > 25.6 µM (inactive).
Under `CCOC(=O)C1CCC(CN(CC(C)C)S(=O)(=O)c2ccc([N+](=O)[O-])cc2)CC1` (stereo not drawn) stands > 23.7 µM (inactive).
Next, `Cc1cccc2c(C(=O)NCc3ccccc3)cc(-c3ccccc3)nc12`: > 24.6 µM (inactive).
On to `O=C(Cn1c2c(c(-c3ccccc3Cl)cc1=O)CCC2)NC1CCCC1`, for which the EC50 is > 28 µM (inactive).
Under `Cc1sc(NC(=O)c2ccco2)c(CN2CCN(CCO)CC2)c1C` stands > 27.7 µM (inactive).
Next, `CC(NC(=O)c1ccco1)c1nnc2n1CCN(Cc1cccc(F)c1)CC2` (stereo not drawn): > 28 µM (inactive).
As to `Cn1ncc2c(NCCc3ccc(Cl)cc3Cl)ncnc21`, the EC50 was > 27.8 µM (inactive).
Under `Cn1c(=O)oc2cc(S(=O)(=O)N3CCCC(C(=O)N4CCOCC4)C3)ccc21` (stereo not drawn) stands > 28 µM (inactive).
Next, `Cn1c(COc2ccc(Cl)cc2)nnc1SCC(=O)NCC(F)(F)F`: > 28.4 µM (inactive); `CC(C)N1CCN(Cc2ccc(OC3CCCC3)cc2)CC1CCO` (stereo not drawn): 0.00143 µM.
Under `CCOC(=O)c1c(NC(=O)C(C)Sc2cn(C)c3ccccc23)sc2c1CCCCC2` (stereo not drawn) stands “inactive”; under `Cc1ccc2nc(-c3ccc(O)cc3)[nH]c2c1`, > 28 µM (inactive); under `CCN(CC)C(=O)Cn1cnc2sc(C(=O)Nc3cc(C)ccc3OC)c(C)c2c1=O`, > 25.7 µM (inactive).
Turning to `N#CC1=C(N)Oc2n[nH]c(C34CC5CC(CC(C5)C3)C4)c2C1c1cccnc1` (stereo not drawn), the EC50 is > 27 µM (inactive).
Under `CCOc1cc(NC(=O)C2CCCO2)c(OCC)cc1NC(C)=O` (stereo not drawn) stands > 9.34 µM (inactive); under `N#Cc1ccc(NC(=O)COC(=O)CCC(=O)c2ccc3c(c2)OCCO3)cc1`, > 28.4 µM (inactive); under `O=C(Nc1cc(Cl)ccc1Cl)c1ccccc1O`, > 34 µM (inactive).
Under `CCCCCNC(=O)c1c(O)c2c([nH]c1=O)CCCC2` stands > 34.1 µM (inactive).
Regarding `Cc1cc(-n2c(SCC(=O)NCc3ccco3)nc3n[nH]c(C)c3c2=N)ccc1Cl`, the EC50 was > 24.4 µM (inactive).
Under `O=C(CSc1nc(-c2ccccc2)cs1)Nc1ccccc1` stands > 28 µM (inactive); under `Cc1ccc2nc(NC(=O)C3=COCCO3)sc2c1`, > 28.4 µM (inactive); under `COc1cccn2c(C(=O)Nc3ccc(Cl)cc3)c(C(F)(F)F)nc12`, > 28 µM (inactive).
Next, `O=C(NCSc1ccncn1)c1ccccc1`: > 41.2 µM (inactive); `CC(C)CC(C(=O)Nc1cccc([N+](=O)[O-])c1)N1C(=O)c2ccccc2C1=O` (stereo not drawn): > 28 µM (inactive); `O=C(Nc1ccc(Oc2cc3ccccc3cc2Cl)c(Cl)c1)c1cc(Br)cc(Br)c1O`: > 17.2 µM (inactive).
Next, `Nc1cccc(-c2nc3ccc(N)cc3s2)c1`: > 36 µM (inactive); `CCOC(=O)c1cc(S(=O)(=O)N2CCN(c3ccccc3F)CC2)cn1C`: > 28 µM (inactive); `O=C1CCCCN1c1cccc(NS(=O)(=O)c2cc(F)ccc2F)c1`: > 28 µM (inactive).
On to `CC1(C)Cc2c(C#N)c(N3CCCC3)nc(-c3ccco3)c2CO1`, for which the EC50 was > 28 µM (inactive).
Under `N#C/C(=C\c1cc(Cl)ccc1O)c1nc2ccccc2[nH]1` stands > 28 µM (inactive).
Under `CN(C)CCN(C)C(=O)c1cccc(OC2CCN(C3CCSCC3)CC2)c1` stands > 28 µM (inactive); under `CCC(C)C1N=C2c3ccccc3N=C(SCC(=O)N3CC(C)CC(C)C3)N2C1=O` (stereo not drawn), > 29.4 µM (inactive).
Next, `CC(C)(C)NS(=O)(=O)c1ccc(NC(=O)COc2ccc(Br)cc2)cc1`: > 28 µM (inactive); `Cn1nc(C(=O)NCc2ccc(F)cc2)c2c1-c1ccccc1OC2`: > 28 µM (inactive).
Regarding `O=c1oc2ccccc2cc1-c1cn2ccccc2n1`, the EC50 was > 34.7 µM (inactive).
Next, `O=C1CCN(C(=O)c2ccc(-c3nc4ccccc4s3)s2)CC1`: > 29.5 µM (inactive).
As for `Cn1c(/C=C/c2ccccc2)nc2ccccc21`, the EC50 is > 37 µM (inactive).
As for `COc1ccc(CCNC(=O)c2sc3nc(C)nc(N4CCCCC4)c3c2C)cc1OC`, the EC50 was > 27.6 µM (inactive).
Next, `O=C(O)CCCN=C1CCc2ccccc2N1`: > 43.2 µM (inactive); `CC(=O)c1c(C)[nH]c(C(=O)N2CCN(c3ccccc3)CC2)c1C`: > 28 µM (inactive); `CC1CCN(S(=O)(=O)c2ccc(NC(=O)CSc3nc4ccccc4o3)cc2)CC1`: “inactive”.
Under `Cc1cn2c(=O)c(C(=O)NOCc3cccc(C(F)(F)F)c3)cnc2s1` stands > 28 µM (inactive); under `O=c1oc(Nc2cccc(C(F)(F)F)c2)nc2ccccc12`, > 28.4 µM (inactive); under `COc1ccc(N2C(=O)NC3CC2(C)Oc2c(OC)cccc23)c(OC)c1` (stereo not drawn), > 28.7 µM (inactive).
Next, `O=C1C2C3C=CC(C3)C2C(=O)N1Nc1c(Cl)cc(Cl)cc1Cl` (stereo not drawn): > 28 µM (inactive); `CCC[C@@H]1NC(=O)[C@@H]2C[C@H](NCc3cc(C)ccc3F)CN2C1=O`: > 28 µM (inactive); `O=S(=O)(NN=C1CCCCCC1)c1ccccc1`: > 28 µM (inactive).
Regarding `COc1ccc(-c2cnn(-c3ccc(C(=O)O)cc3)c2)cc1`, the EC50 was > 28 µM (inactive).
Under `Cc1ccc(-c2c(Nc3ccc(Cl)cc3)c(=O)c2=O)cc1` stands > 28 µM (inactive); under `CC(C)c1ccc2oc3nc(N)c(C(=O)O)cc3c(=O)c2c1`, > 28 µM (inactive).
Next, `COc1ccc2nccnc2c1[N+](=O)[O-]`: > 40 µM (inactive); `Cc1ccc2nc(/C(C#N)=C\c3ccccc3OCC#N)[nH]c2c1`: > 28 µM (inactive); `CCOCCCNC(=O)c1cc([N+](=O)[O-])ccc1Cl`: > 28 µM (inactive).
Consider `COc1ccc(/C=N/NC(=O)COc2cccc(C)c2)cc1O`, for which the EC50 was > 28 µM (inactive).
Under `NC(=O)c1ccc(-c2ccc(N3CCOCC3)nc2)s1` stands > 25.9 µM (inactive).
Take `CC(C)c1ccc(N(CC(=O)NCCSc2ccccc2)S(C)(=O)=O)cc1`: the EC50 is > 28 µM (inactive).
Next, `O=C(CCCOc1ccccc1)NNC(=O)c1ccccc1`: > 30.1 µM (inactive).
Next, `CSc1nc2ccc(NC(=O)Cn3cnc4ccccc4c3=O)cc2s1`: > 29.3 µM (inactive); `O=[N+]([O-])c1ccc(/C=C/c2ccc(O)cc2)cc1`: > 28.9 µM (inactive); `CC(C(=O)O)c1ccc(C(=O)c2ccccc2)s1` (stereo not drawn): > 28 µM (inactive).
In the case of `S=c1nc2c(n[nH]1)c1ccccc1n2CCc1ccccc1`, the EC50 is > 33 µM (inactive).
Regarding `Cc1ccc2nc(NC(=O)C34CC5CC(C3)CC(n3cnc([N+](=O)[O-])n3)(C5)C4)sc2c1`, the EC50 was > 28 µM (inactive).
`C=CCOC(=O)CCN1C(=O)c2ccccc2C1=O`: the EC50 was > 28 µM (inactive).
Under `Cc1cccc(C)c1-n1c(=S)sc2c(=O)n(-c3cccc(Cl)c3)c(SCC#N)nc21` stands > 21.8 µM (inactive); under `N=C1c2ccccc2CN1CC(=O)c1ccccc1`, > 27.4 µM (inactive); under `CC(C)C[C@@H]1NC(=O)[C@@H]2C[C@H](NC(=O)Nc3cccc(C(F)(F)F)c3)CN2C1=O`, > 28 µM (inactive).
Next, `OCCC1CN(Cc2ccc3nonc3c2)CCN1Cc1ccc(F)c(F)c1` (stereo not drawn): > 28 µM (inactive); `CSC1=NSC2=NC(=O)/C(=C\c3ccc([N+](=O)[O-])cc3)C(=N)N12`: > 28 µM (inactive).
Under `O=C(Nc1c2c(nn1-c1cccc(Cl)c1)CSC2)c1ccccc1Br` stands > 20.9 µM (inactive).
Consider `COc1cccc(-c2nnc3n2N=C(c2cccc([N+](=O)[O-])c2)CS3)c1`, for which the EC50 is > 28 µM (inactive).
Next, `CCOC(=O)COc1ccc(/C=C2\C=C(c3ccc(Br)cc3)OC2=O)cc1OC`: > 23.6 µM (inactive); `COc1cccc(NC(=O)n2ncc3c(C)cccc32)c1`: > 28 µM (inactive); `Cn1cc(CCC(=O)NC2CCN(Cc3ccccc3)CC2)c2ccccc21`: > 28 µM (inactive).
Under `CC(=O)OCC1=C(C(=O)O)N2C(=O)[C@@H](NC(=O)Cc3cccs3)[C@H]2SC1` stands > 28 µM (inactive); under `O=C(O)CN1CCN(Cc2ccc(Cl)cc2)C1=O`, > 28 µM (inactive).
Under `Oc1ccc(Nc2ncnc3ccc(I)cc23)cc1` stands > 28 µM (inactive).
With `CNc1nc2c(-c3ccc(Cl)cc3)nnn2c2ccccc12`, the EC50 is > 28 µM (inactive).
Next, `CCN(CC)S(=O)(=O)c1ccc(-c2csc(=Nc3ccccc3OC)n2CC)cc1`: > 17.3 µM (inactive).
